{"source": "ChEMBL document CHEMBL1201862", "about": "“PubChem BioAssay data set” (2004)", "key": {"[1]": {"target": "T1, SUMO-activating enzyme (Homo sapiens, UniProt Q9UBT2)", "T1 sequence (Q9UBE0 whole entry)": "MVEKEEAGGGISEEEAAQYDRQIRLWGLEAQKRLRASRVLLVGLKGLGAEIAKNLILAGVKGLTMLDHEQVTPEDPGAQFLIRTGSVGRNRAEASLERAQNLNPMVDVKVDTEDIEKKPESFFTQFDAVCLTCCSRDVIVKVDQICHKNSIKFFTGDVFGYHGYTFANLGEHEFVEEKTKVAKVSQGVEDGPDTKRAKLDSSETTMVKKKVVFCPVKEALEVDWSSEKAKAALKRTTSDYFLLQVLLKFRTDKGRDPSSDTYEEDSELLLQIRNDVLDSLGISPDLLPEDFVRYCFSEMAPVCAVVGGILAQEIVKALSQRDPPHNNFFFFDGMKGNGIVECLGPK", "T1 sequence (Q9UBT2 whole entry)": "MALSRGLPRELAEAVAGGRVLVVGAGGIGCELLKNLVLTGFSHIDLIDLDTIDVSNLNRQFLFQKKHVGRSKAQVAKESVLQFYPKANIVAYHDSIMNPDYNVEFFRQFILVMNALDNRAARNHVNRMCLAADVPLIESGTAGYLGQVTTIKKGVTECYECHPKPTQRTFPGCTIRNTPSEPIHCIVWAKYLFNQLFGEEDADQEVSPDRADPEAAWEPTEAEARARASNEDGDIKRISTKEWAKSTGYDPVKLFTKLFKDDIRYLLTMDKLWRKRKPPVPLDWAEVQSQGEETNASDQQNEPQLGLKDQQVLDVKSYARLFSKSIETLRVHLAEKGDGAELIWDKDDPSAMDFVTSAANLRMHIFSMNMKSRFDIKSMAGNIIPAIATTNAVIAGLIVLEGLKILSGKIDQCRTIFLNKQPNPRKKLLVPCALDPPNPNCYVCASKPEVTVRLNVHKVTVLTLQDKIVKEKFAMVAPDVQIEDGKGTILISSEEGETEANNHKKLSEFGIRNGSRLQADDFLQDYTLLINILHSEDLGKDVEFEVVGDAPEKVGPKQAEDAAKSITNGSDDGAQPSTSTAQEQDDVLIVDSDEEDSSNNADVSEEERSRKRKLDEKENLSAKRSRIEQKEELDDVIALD", "experiment": "blockers of UBC9-mediated SUMO conjugation – biochemical, AlphaScreen, SUMOylation inhibitor project, confirmation (AID 2018)", "format": "functional"}, "[2]": {"target": "T1, SUMO-activating enzyme", "experiment": "blockers of SAE1/SAE2–UBC9 SUMO transfer – biochemical, HTRF, uHTS, primary screen (AID 2006)", "format": "protein-complex assay"}, "[3]": {"target": "Induced myeloid leukemia cell differentiation protein Mcl-1 (Homo sapiens, UniProt Q07820)", "sequence (Q07820 whole entry)": "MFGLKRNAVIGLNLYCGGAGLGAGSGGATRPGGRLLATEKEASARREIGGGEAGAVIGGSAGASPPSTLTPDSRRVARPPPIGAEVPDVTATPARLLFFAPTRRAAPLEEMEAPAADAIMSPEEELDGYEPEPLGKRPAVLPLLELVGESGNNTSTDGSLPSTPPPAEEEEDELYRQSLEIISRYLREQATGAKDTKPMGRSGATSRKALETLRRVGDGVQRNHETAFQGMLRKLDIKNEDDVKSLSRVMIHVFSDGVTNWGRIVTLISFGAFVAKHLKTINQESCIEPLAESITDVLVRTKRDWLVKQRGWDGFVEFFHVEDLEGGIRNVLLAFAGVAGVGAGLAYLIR", "format": "functional"}, "[4]": {"target": "T2, RNA-binding protein pos-1 (Caenorhabditis elegans, UniProt G5EF15)", "T2 sequence (G5EF15 whole entry)": "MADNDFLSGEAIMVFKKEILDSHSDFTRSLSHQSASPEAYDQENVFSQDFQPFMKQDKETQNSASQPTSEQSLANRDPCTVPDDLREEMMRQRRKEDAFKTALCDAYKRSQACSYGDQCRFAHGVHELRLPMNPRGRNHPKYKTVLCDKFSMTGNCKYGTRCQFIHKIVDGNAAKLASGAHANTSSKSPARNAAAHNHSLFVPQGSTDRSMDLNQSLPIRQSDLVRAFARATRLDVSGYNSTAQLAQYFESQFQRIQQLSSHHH", "experiment": "disruptors of C. elegans POS-1 RNA interaction – biochemical, fluorescence polarization, dose response (AID 1964);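 further: purified POS-1 fused to maltose binding protein made in E. coli; potency of compounds blocking POS-1 binding to fluorescent RNA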"}, "[5]": {"target": "T3, Zinc finger protein mex-5 (Caenorhabditis elegans, UniProt Q9XUB2)", "T3 sequence (Q9XUB2 whole entry)": "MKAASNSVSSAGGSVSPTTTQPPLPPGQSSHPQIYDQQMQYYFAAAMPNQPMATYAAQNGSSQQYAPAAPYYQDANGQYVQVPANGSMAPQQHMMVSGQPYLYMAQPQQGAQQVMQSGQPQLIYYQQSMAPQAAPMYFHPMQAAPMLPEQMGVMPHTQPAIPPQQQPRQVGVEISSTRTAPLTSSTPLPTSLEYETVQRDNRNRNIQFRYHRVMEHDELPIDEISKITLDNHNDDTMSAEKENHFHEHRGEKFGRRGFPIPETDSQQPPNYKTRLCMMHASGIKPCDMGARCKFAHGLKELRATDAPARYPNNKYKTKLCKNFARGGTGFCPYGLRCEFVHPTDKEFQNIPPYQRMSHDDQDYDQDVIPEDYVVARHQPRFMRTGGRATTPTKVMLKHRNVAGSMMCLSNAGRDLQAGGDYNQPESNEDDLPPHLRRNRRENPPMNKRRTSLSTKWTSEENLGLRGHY", "experiment": "potency of MEX-5 RNA-binding blockers – biochemical, C. elegans, fluorescence polarization, dose response (AID 1960)"}, "[6]": {"target": "T4, Ubiquitin-conjugating enzyme E2 N (Homo sapiens, UniProt P61088)", "T4 sequence (P61088 whole entry)": "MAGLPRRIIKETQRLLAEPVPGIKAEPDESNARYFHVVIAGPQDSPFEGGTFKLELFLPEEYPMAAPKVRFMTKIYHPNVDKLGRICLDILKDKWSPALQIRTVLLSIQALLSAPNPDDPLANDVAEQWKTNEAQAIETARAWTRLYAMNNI", "format": "functional"}, "[7]": {"target": "T5, Bcl-2-related protein A1 (Mus musculus, UniProt Q07440)", "T5 sequence (Q07440 whole entry)": "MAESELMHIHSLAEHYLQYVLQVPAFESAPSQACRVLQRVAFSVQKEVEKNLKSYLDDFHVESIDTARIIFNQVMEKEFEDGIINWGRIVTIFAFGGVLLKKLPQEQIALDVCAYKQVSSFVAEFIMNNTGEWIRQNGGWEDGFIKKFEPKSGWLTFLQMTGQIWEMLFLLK", "format": "functional"}, "[8]": {"target": "T4, Ubiquitin-conjugating enzyme E2 N", "format": "functional", "remark": "listed apart in the source"}, "[9]": {"target": "Beta-galactosidase (Escherichia coli, UniProt Q8VNN2)", "sequence (Q8VNN2 whole entry)": "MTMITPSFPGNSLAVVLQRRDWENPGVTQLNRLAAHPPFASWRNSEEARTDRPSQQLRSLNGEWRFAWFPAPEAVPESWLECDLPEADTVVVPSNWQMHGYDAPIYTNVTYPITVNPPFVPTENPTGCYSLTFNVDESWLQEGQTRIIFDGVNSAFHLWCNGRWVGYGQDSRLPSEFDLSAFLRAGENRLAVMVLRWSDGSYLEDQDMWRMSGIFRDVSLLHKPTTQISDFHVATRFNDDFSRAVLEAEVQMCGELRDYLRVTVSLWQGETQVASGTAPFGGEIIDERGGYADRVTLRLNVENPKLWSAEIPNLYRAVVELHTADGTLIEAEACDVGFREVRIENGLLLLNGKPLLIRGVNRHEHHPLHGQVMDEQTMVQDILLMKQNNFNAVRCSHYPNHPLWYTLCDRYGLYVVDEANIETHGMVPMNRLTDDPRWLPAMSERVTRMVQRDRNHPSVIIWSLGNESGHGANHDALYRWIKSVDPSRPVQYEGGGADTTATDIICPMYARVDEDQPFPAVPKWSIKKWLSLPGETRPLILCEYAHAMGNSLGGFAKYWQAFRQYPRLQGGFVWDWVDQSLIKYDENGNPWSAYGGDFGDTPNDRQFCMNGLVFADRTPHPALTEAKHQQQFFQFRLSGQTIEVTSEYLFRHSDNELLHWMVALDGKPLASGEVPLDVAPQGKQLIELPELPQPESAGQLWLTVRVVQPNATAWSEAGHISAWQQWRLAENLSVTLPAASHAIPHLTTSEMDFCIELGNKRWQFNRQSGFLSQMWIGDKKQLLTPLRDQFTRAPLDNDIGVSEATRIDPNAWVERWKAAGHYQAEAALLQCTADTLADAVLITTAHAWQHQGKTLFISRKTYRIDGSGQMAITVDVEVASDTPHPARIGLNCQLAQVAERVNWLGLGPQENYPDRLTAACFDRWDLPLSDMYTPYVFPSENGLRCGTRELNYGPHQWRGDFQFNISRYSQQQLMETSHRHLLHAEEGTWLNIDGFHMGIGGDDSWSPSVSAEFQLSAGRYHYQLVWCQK", "experiment": "PubChem AID 485352", "format": "functional"}, "[10]": {"target": "T6, Type-1 angiotensin II receptor (Homo sapiens, UniProt P30556)", "T6 sequence (P30556 whole entry)": "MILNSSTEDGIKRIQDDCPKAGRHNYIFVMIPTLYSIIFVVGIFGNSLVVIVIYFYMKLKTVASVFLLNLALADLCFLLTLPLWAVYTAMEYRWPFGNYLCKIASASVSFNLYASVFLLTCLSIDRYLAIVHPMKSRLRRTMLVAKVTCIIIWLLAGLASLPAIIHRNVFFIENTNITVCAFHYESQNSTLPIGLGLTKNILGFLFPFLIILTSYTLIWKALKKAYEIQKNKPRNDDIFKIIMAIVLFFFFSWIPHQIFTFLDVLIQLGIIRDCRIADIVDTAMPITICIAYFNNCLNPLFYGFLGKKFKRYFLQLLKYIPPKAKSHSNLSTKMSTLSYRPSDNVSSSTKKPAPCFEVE", "experiment": "antagonism of angiotensin II type 1 receptor – cell-based, uHTS hits, selectivity assay for APJ receptor antagonist project, dose response (AID 463214);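 further: antagonist potency against angiotensin II stimulated AT1 response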", "format": "functional"}, "[11]": {"test_system": "HEK293", "experiment": "HEK293T cell viability loss, resazurin readout – resazurin fluorescence, cytotoxicity control for NF-kB activator project, SAR follow-up (AID 493251)", "format": "functional, cell-based", "conditions": "Homo sapiens"}, "[12]": {"target": "T7, Calpain-2 catalytic subunit (Sus scrofa, UniProt P43367)", "T7 sequence (P43367 whole entry)": "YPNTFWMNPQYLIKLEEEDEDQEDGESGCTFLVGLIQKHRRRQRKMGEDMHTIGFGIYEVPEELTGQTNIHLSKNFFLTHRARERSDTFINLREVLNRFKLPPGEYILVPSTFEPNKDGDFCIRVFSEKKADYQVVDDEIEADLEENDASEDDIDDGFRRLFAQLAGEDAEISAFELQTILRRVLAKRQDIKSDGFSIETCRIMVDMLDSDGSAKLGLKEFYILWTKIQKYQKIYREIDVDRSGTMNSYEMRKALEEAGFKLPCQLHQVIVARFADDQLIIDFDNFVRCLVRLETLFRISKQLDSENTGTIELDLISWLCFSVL", "experiment": "m-calpain protease blockers, concentration series – biochemical, fluorogenic peptide substrate, dose response (AID 1420)", "format": "functional"}, "[13]": {"target": "T8, Short transient receptor potential channel 4 (Mus musculus, UniProt Q9QUQ5)", "T8 sequence (Q9QUQ5 whole entry)": "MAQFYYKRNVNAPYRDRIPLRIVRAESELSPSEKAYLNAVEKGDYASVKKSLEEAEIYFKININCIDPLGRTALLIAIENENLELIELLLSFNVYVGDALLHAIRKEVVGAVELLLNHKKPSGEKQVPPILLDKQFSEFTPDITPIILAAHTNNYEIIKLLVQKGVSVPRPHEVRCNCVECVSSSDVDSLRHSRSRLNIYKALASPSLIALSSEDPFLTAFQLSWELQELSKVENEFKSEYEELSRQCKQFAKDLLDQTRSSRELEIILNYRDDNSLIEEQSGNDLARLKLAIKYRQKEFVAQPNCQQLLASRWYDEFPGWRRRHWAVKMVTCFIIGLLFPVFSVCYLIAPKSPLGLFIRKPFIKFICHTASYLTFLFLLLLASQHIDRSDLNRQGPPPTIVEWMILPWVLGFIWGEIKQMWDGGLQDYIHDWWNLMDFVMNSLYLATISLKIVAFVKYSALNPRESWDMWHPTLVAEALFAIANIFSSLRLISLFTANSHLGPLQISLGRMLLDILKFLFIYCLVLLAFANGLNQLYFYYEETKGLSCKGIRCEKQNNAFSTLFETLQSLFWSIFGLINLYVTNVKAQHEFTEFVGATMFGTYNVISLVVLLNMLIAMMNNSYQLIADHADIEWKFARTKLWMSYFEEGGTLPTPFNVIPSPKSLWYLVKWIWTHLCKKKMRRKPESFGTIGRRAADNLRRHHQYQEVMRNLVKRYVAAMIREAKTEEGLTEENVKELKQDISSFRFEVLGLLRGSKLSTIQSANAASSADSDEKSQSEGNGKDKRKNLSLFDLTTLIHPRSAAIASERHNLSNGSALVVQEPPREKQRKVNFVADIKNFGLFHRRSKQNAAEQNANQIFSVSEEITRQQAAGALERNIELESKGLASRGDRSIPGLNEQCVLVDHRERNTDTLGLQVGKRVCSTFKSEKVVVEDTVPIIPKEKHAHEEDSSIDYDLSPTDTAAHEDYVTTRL", "experiment": "block of DAMGO-driven TRPC4 calcium entry – cell-based, HEK293 TRPC4/mu-opioid, Fluo-4 calcium, dose response (AID 434942)", "format": "functional"}, "[14]": {"target": "T9, Heat shock factor protein 1 (Mus musculus, UniProt P38532)", "T9 sequence (P38532 whole entry)": "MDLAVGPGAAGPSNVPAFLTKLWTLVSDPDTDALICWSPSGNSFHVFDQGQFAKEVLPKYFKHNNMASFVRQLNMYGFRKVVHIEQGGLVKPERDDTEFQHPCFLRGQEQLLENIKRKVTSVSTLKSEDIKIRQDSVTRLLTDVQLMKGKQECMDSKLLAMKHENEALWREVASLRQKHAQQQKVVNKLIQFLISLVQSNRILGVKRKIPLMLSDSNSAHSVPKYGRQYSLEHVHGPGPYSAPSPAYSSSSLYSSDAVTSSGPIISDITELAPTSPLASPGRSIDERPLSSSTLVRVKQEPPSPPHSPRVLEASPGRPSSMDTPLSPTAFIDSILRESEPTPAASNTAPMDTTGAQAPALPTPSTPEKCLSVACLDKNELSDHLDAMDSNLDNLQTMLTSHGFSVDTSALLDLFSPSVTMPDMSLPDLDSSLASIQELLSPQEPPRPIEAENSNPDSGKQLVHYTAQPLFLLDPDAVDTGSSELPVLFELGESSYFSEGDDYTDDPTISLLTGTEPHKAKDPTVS", "experiment": "enhancement of HSF1-driven luciferase signal – cell-based, NIH3T3, luminescence, dose retest, confirmation (AID 435004);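 further: stress induced by proteasome inhibitor MG132 added 30 min after compound; actives raise luminescence as potentiators of the MG132 stress response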", "format": "functional"}}, "note": "Active and inactive are the calls of the source.", "data": [{"smiles": "CC1=C(C#N)C(=O)NC(=O)/C1=C/c1ccc(-c2ccc(S(N)(=O)=O)cc2)o1", "values": [{"measurement": "IC50", "setting": "[1]", "value": "6.48 µM (active)"}, {"measurement": "IC50", "setting": "[2]", "value": "25.7 µM (active)"}, {"measurement": "IC50", "setting": "[3]", "value": "1.59 µM (active)"}, {"measurement": "EC50", "setting": "[4]", "value": "> 300 µM (inconclusive)"}, {"measurement": "EC50", "setting": "[5]", "value": "> 300 µM (not active)"}]}, {"smiles": "CNC(=O)c1ccsc1NC(=O)C1CCCN1S(=O)(=O)c1cccs1", "note": "(configuration not stated)", "values": [{"measurement": "IC50", "setting": "[6]", "value": "19.3 µM (active)"}, {"measurement": "IC50", "setting": "[7]", "value": "> 20 µM (inactive)"}, {"measurement": "IC50", "setting": "[8]", "value": "> 20 µM (inactive)"}]}, {"smiles": "O=C(Nc1nnc(SCc2ccc(F)cc2)s1)c1cnccn1", "values": [{"measurement": "EC50", "setting": "[9]", "value": "> 40 µM (inactive)"}, {"measurement": "IC50", "setting": "[10]", "value": "> 40 µM (not active)"}]}, {"smiles": "CC(C)(C)c1ccc(-c2noc(CCC(=O)O)n2)cc1", "values": [{"measurement": "IC50", "setting": "[11]", "value": "> 80 µM (inactive)"}]}, {"smiles": "COc1cccc(O)c1CN1CCCC(C(=O)c2cccc(C(F)(F)F)c2)C1", "note": "(configuration not stated)", "values": [{"measurement": "IC50", "setting": "[12]", "value": "11.5 µM (not active)"}, {"measurement": "EC50", "setting": "[13]", "value": "2.11 µM (active)"}]}, {"smiles": "CC(=O)Nc1ccc(NC(=O)CCC(=O)OCC(=O)c2cccc([N+](=O)[O-])c2)cc1", "values": [{"measurement": "EC50", "setting": "[9]", "value": "> 40 µM (inactive)"}, {"measurement": "IC50", "setting": "[10]", "value": "26 µM (not active)"}]}, {"smiles": "O=C(CSc1cc(Cl)ccc1Cl)NCC(=O)Nc1ccc(F)c(F)c1F", "values": [{"measurement": "IC50", "setting": "[6]", "value": "15.6 µM (active)"}, {"measurement": "EC50", "setting": "[14]", "value": "> 260 µM (inactive)"}, {"measurement": "IC50", "setting": "[7]", "value": "> 20 µM (inactive)"}, {"measurement": "IC50", "setting": "[8]", "value": "18.8 µM (active)"}]}, {"smiles": "CCOC(=O)c1c(C)c2c(n1C)CCC/C2=N\\O", "values": [{"measurement": "IC50", "setting": "[6]", "value": "19.5 µM (active)"}, {"measurement": "IC50", "setting": "[7]", "value": "> 20 µM (inactive)"}, {"measurement": "IC50", "setting": "[8]", "value": "8.75 µM (active)"}]}]}
